The experiment deals with HCV replicon. It is filed as cell-based.
As to `CCOc1ccc2c(C#N)c(-c3ccc(N)cc3)n(C3CC3)c2c1` [Compound 1245], the IC50 lay in the range of 0.5 to 2 µM.

The compound `CCCOc1ccc2c(C#N)c(-c3ccc(NC(=O)OC(C)CC)cc3)n(C(C)C)c2c1` (stereo not shown) [Compound 1246] showed an IC50 of less than 0.5 µM.

As for `CCCOc1ccc2c(C#N)c(-c3ccc(NC(=O)OC4CCC4)cc3)n(C(C)C)c2c1` [Compound 1247], the concentration for half-maximal inhibition (IC50) is less than 0.5 µM.

With `CCCOc1ccc2c(C#N)c(-c3ccc(NC(=O)OC4CCOCC4)cc3)n(C(C)C)c2c1` [Compound 1248], the IC50 is less than 0.5 µM.

Turning to `CCCOc1ccc2c(C#N)c(-c3ccc(NC(=O)OC4CCOC4)cc3)n(C(C)C)c2c1` (stereo not shown) [Compound 1249], the IC50 is less than 0.5 µM.

In turn, `CCOCCOC(=O)Nc1ccc(-c2c(C#N)c3ccc(OCC)cc3n2C2CCC2)cc1` [Compound 1250] had a 50% inhibitory concentration (IC50) of less than 0.5 µM.

For the compound `CCCOC(=O)N(CC)c1ccc(-c2c(C#N)c3ccc(OCC)cc3n2C2CCC2)cc1` [Compound 1252], the half-maximal inhibitory concentration (IC50) lay within 0.5 to 2 µM.

Turning to `CC(C)OC(=O)Nc1ccc(-c2c(C#N)c3ccc(OCCCN4CCOCC4)cc3n2C2CCC2)cc1` [Compound 1253], the 50% inhibitory concentration (IC50) was in the range of 0.5 to 2 µM.

For `CC(C)OC(=O)Nc1ccc(-c2c(C#N)c3ccc(OCCCn4ccnc4)cc3n2C2CCC2)cc1` [Compound 1254], the half-maximal inhibitory concentration (IC50) was less than 0.5 µM.

In the case of `CCCn1c(-c2ccc(NC(=O)NCCc3ccccc3)cc2)c(C#N)c2ccc(OCC)cc21` [Compound 1256], the IC50 is less than 0.5 µM.

In turn, `N#Cc1c(-c2ccc(NC(=O)OCC3CCC3)cc2)n(C2CCC2)c2cc(OCCCCN3CCCC3)ccc12` [Compound 1257] had an IC50 of less than 0.5 µM.

Turning to `N#Cc1c(-c2ccc(NC(=O)OC3CCC3)cc2)n(C2CCC2)c2cc(OCCCCN3CCCC3)ccc12` [Compound 1258], the concentration for half-maximal inhibition (IC50) was less than 0.5 µM.

On to `N#Cc1c(-c2ccc(NC(=O)NC3CCC3)cc2)n(C2CCC2)c2cc(OCCCCN3CCCC3)ccc12` [Compound 1259], for which the IC50 was less than 0.5 µM.

For `CCN(CC)CCCOc1ccc2c(C#N)c(-c3ccc(NC(=O)OC(C)C)cc3)n(C3CCC3)c2c1` [Compound 1260], the IC50 was less than 0.5 µM.

Take `CC(C)OC(=O)Nc1ccc(-c2c(C#N)c3ccc(OCCCN4CCN(C)CC4)cc3n2C2CCC2)cc1` [Compound 1261]: the IC50 was less than 0.5 µM.

As to `CCOc1ccc2c(C#N)c(-c3ccc(NC(=O)OCc4ccccn4)cc3)n(C3CCC3)c2c1` [Compound 1264], the 50% inhibitory concentration (IC50) was less than 0.5 µM.

For `CCOc1ccc2c(C#N)c(-c3ccc(NC(=O)OC(C)CC)cc3)n(C3CCC3)c2c1` (stereo not shown) [Compound 1265], the IC50 is less than 0.5 µM.

`CCC(C)NC(=O)Nc1ccc(-c2c(C#N)c3ccc(OC(F)F)cc3n2CC2CC2)cc1` (stereo not shown) [Compound 1266] gave a concentration for half-maximal inhibition (IC50) of 0.5 to 2 µM.

For `CC(OC(=O)Nc1ccc(-c2c(C#N)c3ccc(OC(F)F)cc3n2CC2CC2)cc1)C1CC1` (stereo not shown) [Compound 1267], the IC50 lay within 0.5 to 2 µM.

Compound `CCC(C)OC(=O)Nc1ccc(-c2c(C#N)c3ccc(OC(F)F)cc3n2CC2CC2)cc1` (stereo not shown) [Compound 1268] showed a half-inhibitory concentration (IC50) of 0.5 to 2 µM.

The compound `CC(C)OC(=O)Nc1ccc(-c2c(C#N)c3ccc(OCCN(C)C)cc3n2C2CCC2)cc1` [Compound 1269] displayed an IC50 of less than 0.5 µM.

`CCN(C)CCOc1ccc2c(C#N)c(-c3ccc(NC(=O)OC(C)C)cc3)n(C3CCC3)c2c1` [Compound 1270] came in with an IC50 of less than 0.5 µM.

`CC(C)OC(=O)Nc1ccc(-c2c(C#N)c3ccc(OCCN4CCOCC4)cc3n2C2CCC2)cc1` [Compound 1271] registered an IC50 of less than 0.5 µM.

For `CC1CCN(CCOc2ccc3c(C#N)c(-c4ccc(NC(=O)OC(C)C)cc4)n(C4CCC4)c3c2)CC1` [Compound 1272], the IC50 is less than 0.5 µM.

Turning to `CC(C)OC(=O)Nc1ccc(-c2c(C#N)c3ccc(OCCN4CCSCC4)cc3n2C2CCC2)cc1` [Compound 1273], the IC50 fell in the range of 0.5 to 2 µM.

In the case of `COCCN(C)CCOc1ccc2c(C#N)c(-c3ccc(NC(=O)OC(C)C)cc3)n(C3CCC3)c2c1` [Compound 1274], the IC50 was less than 0.5 µM.

As to `CC(C)OC(=O)Nc1ccc(-c2c(C#N)c3ccc(OCCn4ccnc4)cc3n2C2CCC2)cc1` [Compound 1275], the half-inhibitory concentration (IC50) was less than 0.5 µM.

The compound `CCN(CC)CCOc1ccc2c(C#N)c(-c3ccc(NC(=O)OC(C)C)cc3)n(C3CCC3)c2c1` [Compound 1278] registered an IC50 of less than 0.5 µM.

With `CC(C)OC(=O)Nc1ccc(-c2c(C#N)c3ccc(OCCNC4CC4)cc3n2C2CCC2)cc1` [Compound 1279], the IC50 is less than 0.5 µM.

Consider `N#Cc1c(-c2ccc(NS(=O)(=O)C3CC3)cc2)n(C2CCC2)c2cc(OCC3CCCO3)ccc12` (stereo not shown) [Compound 1280], for which the IC50 is less than 0.5 µM.

Regarding `CC(OC(=O)Nc1ccc(-c2c(C#N)c3ccc(OCC4CCCO4)cc3n2C2CCC2)cc1)C1CC1` (stereo not shown) [Compound 1281], the IC50 was less than 0.5 µM.

For the compound `N#Cc1c(-c2ccc(NC(=O)OC3CCC3)cc2)n(C2CCC2)c2cc(OCC3CCCO3)ccc12` (stereo not shown) [Compound 1282], the IC50 is less than 0.5 µM.

As for `CCC(C)OC(=O)Nc1ccc(-c2c(C#N)c3ccc(OCC4CCCO4)cc3n2C2CCC2)cc1` (stereo not shown) [Compound 1283], the IC50 was less than 0.5 µM.

In the case of `CC1(COC(=O)Nc2ccc(-c3c(C#N)c4ccc(OCC5CCCO5)cc4n3C3CCC3)cc2)CC1` (stereo not shown) [Compound 1284], the IC50 is less than 0.5 µM.

In the case of `CC(C)OC(=O)Nc1ccc(-c2c(C#N)c3ccc(OCC4CCCO4)cc3n2C2CCC2)cc1` (stereo not shown) [Compound 1285], the IC50 is less than 0.5 µM.

Regarding `N#Cc1c(-c2ccc(NC(=O)OCC3CCC3)cc2)n(C2CCC2)c2cc(OCC3CCCO3)ccc12` (stereo not shown) [Compound 1287], the concentration for half-maximal inhibition (IC50) is less than 0.5 µM.

`N#Cc1c(-c2ccc(NC(=O)NC3CCC3)cc2)n(C2CCC2)c2cc(OCC3CCCO3)ccc12` (stereo not shown) [Compound 1288] yielded an IC50 of less than 0.5 µM.

As for `CCOc1ccc2c(C#N)c(-c3ccc(NC(=O)OC(C)c4ccccc4)cc3)n(C3CCC3)c2c1` (stereo not shown) [Compound 1289], the IC50 is less than 0.5 µM.

Consider `CCOc1ccc2c(C#N)c(-c3ccc(NC(=O)OC(C)C(C)C)cc3)n(C3CCC3)c2c1` (stereo not shown) [Compound 1290], for which the IC50 is less than 0.5 µM.

`CCOc1ccc2c(c1)c(C#N)c(-c1ccc(NC(=O)OCC3CC3)cc1)n2C1CCC1` [Compound 1291] returned an IC50 of less than 0.5 µM.

`CCOc1ccc2c(c1)c(C#N)c(-c1ccc(NC(=O)OC3CCC3)cc1)n2C1CCC1` [Compound 1292] yielded an IC50 of less than 0.5 µM.

The compound `CCOc1ccc2c(c1)c(C#N)c(-c1ccc(NC(=O)OCC3(C)CC3)cc1)n2C1CCC1` [Compound 1294] came in with an IC50 of less than 0.5 µM.

`CCOc1ccc2c(c1)c(C#N)c(-c1ccc(NC(=O)OC(C)C3CC3)cc1)n2C1CCC1` (stereo not shown) [Compound 1295]: the IC50 is less than 0.5 µM.

Compound `CCOc1ccc2c(c1)c(C#N)c(-c1ccc(NC(=O)OC(C)C3CC3)cc1)n2C1CCC1` (stereo not shown) [Compound 1296] returned an IC50 of 0.5 to 2 µM.

`CCOc1ccc2c(c1)c(C#N)c(-c1ccc(NC(=O)OC3CCOC3)cc1)n2C1CCC1` (stereo not shown) [Compound 1297] showed an IC50 of 0.5 to 2 µM.

With `CCOc1ccc2c(c1)c(C#N)c(-c1ccc(NC(=O)OC(C)COC)cc1)n2C1CCC1` (stereo not shown) [Compound 1299], the IC50 lay in the range of 0.5 to 2 µM.

Consider `COC(=O)c1ccc2c(C#N)c(-c3ccc(NC(=O)OC(C)C)cc3)n(C3CCC3)c2c1` [Compound 1300], for which the IC50 is less than 0.5 µM.

In turn, `COC(=O)c1ccc2c(C#N)c(-c3ccc(NC(=O)NC(C)C)cc3)n(C3CCC3)c2c1` [Compound 1301] registered a half-maximal inhibitory concentration (IC50) of less than 0.5 µM.

In turn, `CC(C)NC(=O)Nc1ccc(-c2c(C#N)c3cc4c(cc3n2C2CCC2)OCO4)cc1` [Compound 1303] displayed a concentration for half-maximal inhibition (IC50) of 0.5 to 2 µM.

The values are drawn from patent US7973069B2 (PTC Therapeutics, Inc., priority 2004, dated 2011).
